Experimental findings from US11377473B2, “Albumin-binding prodrugs of auristatin E derivatives” (priority 2017, dated 2022) are described below.

The target of data set [1] is T1, albumin in human plasma (Homo sapiens, UniProt P02768).
T1 construct: the plasma was separated from the red blood cells by spinning it down for 3 minutes at 3000 RPM; from tissue; host or cells: fresh plasma of a healthy human volunteer
Description: Binding kinetics to albumin in human plasma. As to conditions: 37° C. In kind it is in vitro ADME. The method, then:
Whole blood was taken from a healthy human volunteer (EDTA collection tube), the plasma was separated from the red blood cells by spinning it down for 3 minutes at 3000 RPM. The plasma was then used directly, within 2 hours of the blood donation. 360 μL of the appropriate plasma was used for each binding experiment.
(§1) All binding experiments were carried out in triplicate. The plasma was incubated at 37° C. using an Eppendorf Thermomixer C. After 30 minutes incubation 40 μL of the appropriate albumin-binding auristatin-Sulf07 derivative was dissolved in its reconstitution solution and added to the plasma. Samples (40 μL) were taken after 15 seconds, 2 minutes, 4 minutes, 8 minutes and 15 minutes (5 samples).
(§2) The samples were immediately added to 160 μL of acetonitrile (containing 4 μg/mL of 'MMAE as an internal standard) and vortexed for 1 minute.
(§3) The solutions were pipetted into an Impact plasma precipitation plate (shaken for 60 seconds) and filtered by vacuum onto a 96 well plate. Remaining drug was determined by LCMS quantification (method 5, 30 μL injection) using MRM MS2 negative mode (multiple reaction monitoring). Parent ions: auristatin F (Mass-744.8), AE-Keto-Sulf07 (Mass-1135.1) and AE-Ester-Sulf07 (Mass-1283.2). Percentage of binding was determined by comparing the AUC for AE-Keto-Sulf07 and AE-Ester-Sulf07 to calibration curves generated by LCMS for each compound.

Data set [2] addresses T2, albumin in murine plasma (Mus musculus, UniProt P07724).
T2 construct: CD1 murine plasma and Sprague Dawley rat plasma were removed from −80° C. storage; from tissue; host or cells: CD1 murine plasma (frozen, thawed, filtered)
Description: Binding kinetics to albumin in murine plasma. As to conditions: 37° C. In kind it is in vitro ADME, CD1 murine. The method, then: (§4) CD1 murine plasma and Sprague Dawley rat plasma were removed from −80° C. storage and allowed to reach room temperature. The thawed plasma was spun down at 13.6 kRPM for 60 seconds, the supernatant was filtered through a filter needle (5 μm) and subsequently through a 0.45 μm CA membrane.
as §1, §2, §3

Data set [3] deals with T3, albumin in rat plasma (Rattus norvegicus, UniProt P02770).
T3 construct: CD1 murine plasma and Sprague Dawley rat plasma were removed from −80° C. storage; from tissue; host or cells: Sprague Dawley rat plasma (frozen, thawed, filtered)
Description: Binding kinetics to albumin in rat plasma. In kind it is in vitro ADME, Sprague Dawley rat. As to conditions: 37° C. The method, then: as §4, §1, §2, §3

The nature of data set [4]: Accelerated degradation of lyophilized auristatin formulations. As to conditions: 55° C. for up to 264 hours. In kind it is physicochemical. As for the experimental part: The APIs were dissolved in the lyophilization buffer which contained 2-HPβCD, 10 mM sodium citrate pH 6.2, 50% tert-butyl alcohol (V/V)). For the AE-Keto derivatives 2% (w/v) 2-HPβCD was employed to dissolve the AE-Keto APIs at 1.27 mM concentration; for the AE-Ester derivatives 4% (w/v) 2-HPβCD was used to dissolve the APIs at 1.05 mM concentration. The dissolved APIs were sterile filtered using an Acrodisc Fluorodyne II syringe filter (0.2 μm). The sterile solutions were pipetted into lyophilization vials which were then partially sealed using a rubber stopper. The vials were subsequently placed into the freeze dryer for lyophilization. The vials were frozen on the freeze dryer shelf at −40° C. for 2 hours, after 2 hours main drying was started. Main drying was run for 26 hours, parameters: shelf temperature −20° C., vacuum 0.0048 mbar. After main drying, final drying was initiated. Final drying was run for 16 hours, parameters: shelf temperature 20° C., vacuum 0.0047 mbar. […]
The sealed vials were incubated at 55° C. using an Eppendorf Thermomixer C with a plate insert (Smartblock) and lid. […] Stability of the APIs was determined by HPLC (method 8, 254 nm for AE-Keto derivatives, 310 nm for AE-Ester derivatives). The percentage of maleimide hydrolysis at each time point was determined by comparison to the AUC for each API at time 0.

In data set [5] the target is T4, cysteine-34 of human serum albumin (Homo sapiens, UniProt P02768).
T4 construct: from tissue; host or cells: human plasma (frozen, thawed, filtered)
Description: Binding specificity to cysteine-34 of human serum albumin in human plasma (HIC). In kind it is in vitro ADME. As to conditions: 5 minutes at 37° C. As for the experimental part:
The albumin-binding auristatin-Sulf07 derivatives were reconstituted in 50 mM sodium phosphate buffer pH 7.6 and 5% sucrose which contained 2-HPβCD. 2% HPβCD concentration was used to reconstitute the AE-Keto-Sulf07 and 4% for the AE-Ester-Sulf07 respectively. Both drugs were reconstituted at a concentration of 1 mg/mL (AE-Ester-Sulf07 780 μM, AE-Keto-Sulf07 880 μM).
Human plasma was removed from −80° C. storage and allowed to reach room temperature. The thawed plasma was spun down at 13.6 kRPM for 60 seconds, the supernatant was filtered through filter needle (5 μm) and subsequently through a 0.45 μm CA membrane. 180 μL of the appropriate plasma was used for each binding experiment. The plasma was incubated at 37° C. using an Eppendorf Thermomixer C. After 30 minutes incubation 20 μL of the appropriate albumin-binding auristatin-Sulf07 derivative was added. The albumin-binding drug was allowed to react in the plasma for 5 minutes at 37° C. After 5 minutes the solution was analyzed directly by HPLC hydrophobic interaction chromatography (HIC, method 6, 250 nm) to confirm the site specific conjugation to albumin and formation of the albumin drug conjugate.

Data set [6] relates to NSCLC xenograft model LXFA737. In words: Human non-small cell lung cancer model LXFA737, large tumors. In kind it is in vivo, NMRI nude mice. The text has this: Mice were kept under a 14-hour light/10-hour dark, artificial light cycle. The animals were fed with autoclaved Teklad Global 19% Protein Extruded Diet (T.2019S.12) from Envigo RMS SARL and had access to sterile filtered and acidified (pH 2.5) tap water which was changed twice weekly. Feed and water were provided ad libitum. […] Animals were routinely monitored twice daily on working days and daily on Saturdays and Sundays. Starting on day 0, animals were weighed twice a week. Relative body weights (RBW) of individual animals were calculated by dividing the individual absolute body weight on day X (BWx) by the individual body weight on the day of randomization multiplied by 100%. […] Tumor volumes were calculated according to the following equation: […]
Statistical analysis was only carried out if at least 50% of the initially randomized animals in a relevant group were still alive. Comparisons between test groups were carried out for the same days. By convention, p-values ≤0.05 indicate significance of tumor inhibition. Statistical calculations were performed using GraphPad Prism bioanalytic software (San Diego Calif. USA, www.graphpad.com).
The evaluation of auristatin E and the albumin-binding auristatin E derivative AE-Keto-Sulf07 in a human non-small cell lung cancer model LXFA737 was carried out as described in the general procedure for patient-derived xenograft models.
Sample preparation: 51 mg weighed in a 100 mL vial dissolved in 36.5 mL 50/50 tert-butanol/10 mM sodium citrate buffer, 3% 2-HPßCD—pH 6.2; 2.4 mL were aliquoted in 4 mL vials.

T3 sequence (P02770 25-608): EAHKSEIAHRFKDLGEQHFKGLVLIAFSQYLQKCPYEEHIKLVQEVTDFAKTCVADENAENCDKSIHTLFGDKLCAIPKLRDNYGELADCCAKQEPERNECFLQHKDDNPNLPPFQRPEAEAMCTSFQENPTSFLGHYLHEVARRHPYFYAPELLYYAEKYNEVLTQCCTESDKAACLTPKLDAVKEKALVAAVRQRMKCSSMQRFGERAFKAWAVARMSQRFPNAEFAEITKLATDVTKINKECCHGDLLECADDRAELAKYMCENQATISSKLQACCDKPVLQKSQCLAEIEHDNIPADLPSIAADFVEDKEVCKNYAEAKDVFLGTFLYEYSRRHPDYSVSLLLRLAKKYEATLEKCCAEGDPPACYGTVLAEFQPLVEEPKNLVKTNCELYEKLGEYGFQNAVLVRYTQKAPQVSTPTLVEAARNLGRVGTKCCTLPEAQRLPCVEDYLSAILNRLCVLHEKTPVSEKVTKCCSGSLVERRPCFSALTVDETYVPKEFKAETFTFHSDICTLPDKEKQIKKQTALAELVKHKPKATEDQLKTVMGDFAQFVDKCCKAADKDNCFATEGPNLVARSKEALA
T4 sequence (P02768 25-609): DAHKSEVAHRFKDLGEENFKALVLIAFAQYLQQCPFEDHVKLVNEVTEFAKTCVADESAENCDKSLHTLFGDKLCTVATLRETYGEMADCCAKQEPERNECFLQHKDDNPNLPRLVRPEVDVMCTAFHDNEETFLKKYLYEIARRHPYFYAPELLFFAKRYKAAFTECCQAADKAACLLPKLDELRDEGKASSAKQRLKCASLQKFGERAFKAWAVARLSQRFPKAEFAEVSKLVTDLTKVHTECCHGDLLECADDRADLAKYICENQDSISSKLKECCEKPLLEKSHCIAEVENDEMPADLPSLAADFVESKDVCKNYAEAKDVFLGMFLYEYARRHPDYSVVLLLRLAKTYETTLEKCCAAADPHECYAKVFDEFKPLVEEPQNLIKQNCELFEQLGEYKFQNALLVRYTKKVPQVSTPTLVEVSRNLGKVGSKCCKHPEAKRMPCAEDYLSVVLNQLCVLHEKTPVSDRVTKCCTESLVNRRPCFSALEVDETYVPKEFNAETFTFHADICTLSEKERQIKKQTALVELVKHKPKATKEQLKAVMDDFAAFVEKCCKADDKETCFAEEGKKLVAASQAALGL
T1 sequence (P02768 25-609): as above
T2 sequence (P07724 25-608): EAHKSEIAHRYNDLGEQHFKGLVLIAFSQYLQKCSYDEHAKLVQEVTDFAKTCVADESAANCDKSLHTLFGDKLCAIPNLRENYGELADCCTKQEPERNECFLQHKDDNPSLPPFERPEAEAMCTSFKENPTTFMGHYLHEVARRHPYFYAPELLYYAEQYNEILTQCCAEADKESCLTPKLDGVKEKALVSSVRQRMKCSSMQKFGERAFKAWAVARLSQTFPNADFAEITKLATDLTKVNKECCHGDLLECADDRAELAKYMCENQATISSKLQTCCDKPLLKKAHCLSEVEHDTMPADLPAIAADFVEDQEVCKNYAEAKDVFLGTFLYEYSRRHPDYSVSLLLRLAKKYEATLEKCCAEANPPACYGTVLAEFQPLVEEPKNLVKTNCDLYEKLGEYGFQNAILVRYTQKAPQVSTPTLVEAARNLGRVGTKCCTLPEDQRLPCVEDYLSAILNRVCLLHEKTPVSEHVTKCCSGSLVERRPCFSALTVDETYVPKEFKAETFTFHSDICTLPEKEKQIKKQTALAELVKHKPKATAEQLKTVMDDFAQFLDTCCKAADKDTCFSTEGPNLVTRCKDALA

Take “2-(2-(1-(4-(((1S,2R)-2-((2R,3R)-3-((S)-1-((3R,4R,5S)-4-((S)-2-((R)-2-(dimethylamino)-3-methylbutanamido)-N,3-dimethylbutanamido)-3-methoxy-5-methylheptanoyl)pyrrolidin-2-yl)-3-methoxy-2-methylpropanamido)-1-phenylpropoxy)carbonyl)phenyl)ethylidene)hydrazine-1-carbonyl)-5-(6-(2,5-dioxo-2,5-dihydro-1H-pyrrol-1-yl)hexanamido)benzenesulfonic acid [AE-Ester-Sulf07]”: the “albumin binding in plasma” value in data set [1], in data set [2] and in data set [3] was “very rapid” throughout. In addition, the “stability under accelerated degradation conditions (maleimide hydrolysis)” value in data set [4] was “more stable than the respective EMCH derivatives”. The “specificity of binding to albumin” value in data set [5] is listed as “demonstrated”.

Turning to `CC[C@H](C)[C@@H]([C@@H](CC(=O)N1CCC[C@H]1[C@H](OC)[C@@H](C)C(=O)N[C@H](C)C(=NNC(=O)c1ccc(NC(=O)CCCCCN2C(=O)C=CC2=O)cc1S(=O)(=O)O)c1ccccc1)OC)N(C)C(=O)[C@@H](NC(=O)[C@H](C(C)C)N(C)C)C(C)C` [AE-Keto-Sulf07, 2-(2-((R)-2-((2R,3R)-3-((S)-1-((3R,4S,5S)-4-((S)-2-((S)-2-(dimethylamino)-3-methylbutanamido)-N,3-dimethylbutanamido)-3-methoxy-5-methylheptanoyl)pyrrolidin-2-yl)-3-methoxy-2-methylpropanamido)-1-phenylpropylidene)hydrazine-1-carbonyl)-5-(6-(2,5-dioxo-2,5-dihydro-1H-pyrrol-1-yl)hexanamido)benzenesulfonic acid], the “albumin binding in plasma” value in data set [1], in data set [2] and in data set [3] was “very rapid” each time. Moreover, the “stability under accelerated degradation conditions (maleimide hydrolysis)” value in data set [4] is “more stable than the respective EMCH derivatives”. For the same compound, in data set [6] (4.5 mg/kg 8 times twice weekly), the side effects result is on record as “No side effects were registered”. Besides, the tumor response result in data set [6] (4.5 mg/kg 8 times twice weekly, day 15 until end of study on day 59) is “partial tumor remission”. Besides, in data set [6] (4.5 mg/kg versus auristatin E 0.3 mg/kg, 8 times twice weekly, day 28), the “p, antitumor efficacy versus auristatin E” value is given as under 0.01. Besides, in data set [5], the “specificity of binding to albumin” value was “demonstrated”.

Regarding `CC[C@H](C)[C@@H]([C@@H](CC(=O)N1CCC[C@H]1[C@H](OC)[C@@H](C)C(=O)N[C@H](C)[C@@H](O)c1ccccc1)OC)N(C)C(=O)[C@@H](NC(=O)[C@H](C(C)C)N(C)C)C(C)C` [auristatin E], the antitumor activity result in data set [6] (0.3 mg/kg 8 times twice weekly) is “did not show any activity”.
